One assay concerns the target FGFR2 (Homo sapiens (Human), UniProt P21802). Description: Biochemical FGFR2 Caliper assay.
For another assay, the system named is SNU-16. Description: Cell SNU-16 assay. It is filed as cell-based.
Where [1] appears, read: Homo sapiens, SNU-16, SNU-16 cells.

pIC50: −log10 of the molar value. Bounds are passed on as bounds.

FGFR2, sequence (P21802 22-821): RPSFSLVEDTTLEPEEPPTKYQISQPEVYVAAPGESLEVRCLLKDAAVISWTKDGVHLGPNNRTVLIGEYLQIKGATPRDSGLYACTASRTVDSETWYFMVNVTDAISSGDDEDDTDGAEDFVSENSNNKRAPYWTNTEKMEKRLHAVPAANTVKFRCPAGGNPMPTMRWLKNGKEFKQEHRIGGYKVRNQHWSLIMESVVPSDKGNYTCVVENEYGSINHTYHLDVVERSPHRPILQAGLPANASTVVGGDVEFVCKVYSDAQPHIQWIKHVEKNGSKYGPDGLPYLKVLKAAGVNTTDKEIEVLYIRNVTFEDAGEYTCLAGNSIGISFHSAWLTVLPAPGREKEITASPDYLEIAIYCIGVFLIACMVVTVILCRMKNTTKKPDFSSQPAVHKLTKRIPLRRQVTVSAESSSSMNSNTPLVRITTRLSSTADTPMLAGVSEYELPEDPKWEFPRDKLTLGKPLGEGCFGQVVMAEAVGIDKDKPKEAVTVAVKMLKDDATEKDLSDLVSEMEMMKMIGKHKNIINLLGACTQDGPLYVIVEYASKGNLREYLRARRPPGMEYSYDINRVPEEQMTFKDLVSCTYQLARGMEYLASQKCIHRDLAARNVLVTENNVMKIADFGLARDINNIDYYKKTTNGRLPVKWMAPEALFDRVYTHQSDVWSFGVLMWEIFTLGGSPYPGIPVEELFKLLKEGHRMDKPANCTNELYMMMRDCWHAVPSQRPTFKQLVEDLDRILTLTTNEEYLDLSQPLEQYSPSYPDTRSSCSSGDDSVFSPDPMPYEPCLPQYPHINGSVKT

With `C#C[C@@H]1CCCN1C(=O)[C@@H]1CC=C(c2c(-c3ccc(NC(=O)C(=C)C)cc3)n(C)c3ncnc(N)c23)CC1` (single isomer, unassigned) [Example 951], the pIC50 on FGFR2 was 6.00 to 6.60; in the assay with SNU-16 (setting [1]), 6.60 to 7.00.

As to `C#C[C@H]1CCCN1C(=O)[C@@H]1CC=C(c2c(-c3ccc(NC(=O)C(=C)C)cc3)n(C)c3ncnc(N)c23)CC1` (single isomer, unassigned) [Example 953], the negative logarithm of the IC50 (pIC50) on FGFR2 is > 7.00; in the assay with SNU-16 (setting [1]), 4.00 to 6.00.

`C=C(C)C(=O)Nc1ccc(-c2c(C3=CC[C@@H](C(=O)N4CCC[C@]45CCOC5)CC3)c3c(N)ncnc3n2C)cc1` (single isomer, unassigned) [Example 954]: the negative-log IC50 (pIC50) against FGFR2 was > 7.00; with SNU-16 (SNU-16 cells), ≥ 7.00.

As to `C=C(C)C(=O)Nc1ccc(-c2c(C3=CC[C@H](C(=O)N4CCC[C@@]45CCOC5)CC3)c3c(N)ncnc3n2C)cc1` (single isomer, unassigned) [Example 955], the negative-log IC50 (pIC50) on FGFR2 is 4.00 to 6.00; in the assay with SNU-16 (SNU-16 cells) it was 6.00 to 6.60.

Turning to `C=C(C)C(=O)Nc1ccc(-c2c(C3=CC[C@H](C(=O)NC4CCCC4)CC3)c3c(N)ncnc3n2C)cc1` (single isomer, unassigned) [Example 957], the figures for the negative logarithm of the IC50 (pIC50) at FGFR2 and with SNU-16 (setting [1]) were 6.60 to 7.00 and ≥ 7.00, respectively.

`C=C(C)C(=O)Nc1ccc(-c2c(C3=CC[C@@H](C(=O)NC4CCCC4)CC3)c3c(N)ncnc3n2C)cc1` (single isomer, unassigned) [Example 958]: the negative-log IC50 (pIC50) at FGFR2 was 6.00 to 6.60; with SNU-16 (setting [1]) it was ≥ 7.00.

With `C=C(C)C(=O)Nc1ccc(-c2c(C3=CC[C@H](C(=O)N4CCC[C@@]45CCOC5)CC3)c3c(N)ncnc3n2C)cc1` (single isomer, unassigned) [Example 960], the negative-log IC50 (pIC50) against FGFR2 and with SNU-16 (SNU-16 cells) was 4.00 to 6.00 each time.

On to `C=C(C)C(=O)Nc1ccc(-c2c(C3=CC[C@@H](C(=O)N4CCC[C@]45CCOC5)CC3)c3c(N)ncnc3n2C)cc1` (single isomer, unassigned) [Example 961], for which the pIC50 against FGFR2 was 4.00 to 6.00; in the assay on SNU-16 (SNU-16 cells), 6.00 to 6.60.

For `C=CC(=O)Nc1ccc(-c2c(C3=CC[C@@H](C(=O)N4CCCC4)CC3)c3c(N)ncnc3n2C)cc1` (single isomer, unassigned) [Example 962], the negative logarithm of the IC50 (pIC50) at FGFR2 was > 7.00; in the assay on SNU-16 (setting [1]), ≥ 7.00.

Consider `C=CC(=O)Nc1ccc(-c2c(C3=CC[C@H](C(=O)N4CCCC4)CC3)c3c(N)ncnc3n2C)cc1` (single isomer, unassigned) [Example 963], for which the negative-log IC50 (pIC50) is > 7.00 at FGFR2 and ≥ 7.00 in the assay on SNU-16 (setting [1]).

On to `C=CC(=O)N[C@H]1C[C@@H]1c1c(-c2ccc(C(=O)N3CCCC3)cc2)c2c(N)ncnc2n1C` (single isomer, unassigned) [Example 972], for which the pIC50 at FGFR2 and in the assay with SNU-16 (setting [1]) was 4.00 to 6.00 throughout.

In the case of `C=CC(=O)N[C@@H]1C[C@@H]1c1c(-c2ccc(C(=O)N3CCCC3)cc2)c2c(N)ncnc2n1C` (single isomer, unassigned) [Example 973], the negative-log IC50 (pIC50) against FGFR2 was 6.00 to 6.60; in the assay on SNU-16 (setting [1]), 4.00 to 6.00.

With `C=CC(=O)N[C@@H]1C[C@H]1c1c(-c2ccc(C(=O)N3CCCC3)cc2)c2c(N)ncnc2n1C` (single isomer, unassigned) [Example 974], the negative logarithm of the IC50 (pIC50) against FGFR2 and with SNU-16 (setting [1]) was 4.00 to 6.00 each time.

As to `C=CC(=O)N[C@H]1C[C@H]1c1c(-c2ccc(C(=O)N3CCCC3)cc2)c2c(N)ncnc2n1C` (single isomer, unassigned) [Example 975], the negative logarithm of the IC50 (pIC50) at FGFR2 and in the assay on SNU-16 (setting [1]) was 4.00 to 6.00 throughout.

With `C=C(C)C(=O)Nc1ccc(-c2c(C3=CC[C@H](C(=O)N4CCCCCC4)CC3)c3c(N)ncnc3n2C)cc1` (single isomer, unassigned) [Example 977], the negative logarithm of the IC50 (pIC50) at FGFR2 is > 7.00; in the assay with SNU-16 (setting [1]), ≥ 7.00.

As to `C=C(C)C(=O)Nc1ccc(-c2c(C3=CC[C@@H](C(=O)N4CCCCCC4)CC3)c3c(N)ncnc3n2C)cc1` (single isomer, unassigned) [Example 979], the pIC50 against FGFR2 and in the assay on SNU-16 (setting [1]) was 6.00 to 6.60 each time.

For `C=C(C)C(=O)Nc1ccc(-c2c(C3=CC[C@@H](C(=O)N4CCC[C@H]4COC)CC3)c3c(N)ncnc3n2C)cc1` (single isomer, unassigned) [Example 981], the negative-log IC50 (pIC50) at FGFR2 and in the assay with SNU-16 (setting [1]) was 6.00 to 6.60 each time.

`C=C(C)C(=O)Nc1ccc(-c2c(C3=CC[C@H](C(=O)N4CCC[C@H]4COC)CC3)c3c(N)ncnc3n2C)cc1` (single isomer, unassigned) [Example 982]: the pIC50 against FGFR2 was 4.00 to 6.00; in the assay with SNU-16 (setting [1]) it was 6.00 to 6.60.

`C=C(C)C(=O)Nc1ccc(-c2c(C3=CC[C@@H](C(=O)N4CCc5ccccc54)CC3)c3c(N)ncnc3n2C)cc1` (single isomer, unassigned) [Example 985]: the pIC50 on FGFR2 and in the assay with SNU-16 (setting [1]) was 6.00 to 6.60 throughout.

With `C=C(C)C(=O)Nc1ccc(-c2c(C3=CC[C@H](C(=O)N4CCc5ccccc54)CC3)c3c(N)ncnc3n2C)cc1` (single isomer, unassigned) [Example 986], the negative-log IC50 (pIC50) against FGFR2 and in the assay with SNU-16 (setting [1]) was 6.00 to 6.60 throughout.

With `C=C(C)C(=O)Nc1ccc(-c2c(C3=CC[C@@]4(CC3)Cc3ccccc3C4=O)c3c(N)ncnc3n2C)cc1` (single isomer, unassigned) [Example 987], the negative-log IC50 (pIC50) at FGFR2 and in the assay on SNU-16 (setting [1]) was 4.00 to 6.00 throughout.

In the case of `C=C(C)C(=O)Nc1ccc(-c2c(C3=CC[C@]4(CC3)Cc3ccccc3C4=O)c3c(N)ncnc3n2C)cc1` (single isomer, unassigned) [Example 988], the pIC50 was 6.00 to 6.60 on FGFR2 and ≥ 7.00 in the assay with SNU-16 (setting [1]).

For `C=C(C)C(=O)Nc1ccc(-c2c(C3=CC[C@H](C(=O)N4CCCC45COC5)CC3)c3c(N)ncnc3n2C)c(C)c1` (single isomer, unassigned) [Example 1029], the results for the negative-log IC50 (pIC50) against FGFR2 and in the assay on SNU-16 (setting [1]) were 4.00 to 6.00 and 6.00 to 6.60, respectively.

Consider `C=CC(=O)N[C@H]1CCN(c2cccc(-c3c(-c4ccc(Oc5cccc(C)n5)cc4)c4c(N)ncnc4n3C)c2)C1` (single isomer, unassigned) [Example 1031], for which the negative logarithm of the IC50 (pIC50) against FGFR2 is > 7.00; with SNU-16 (setting [1]), 6.60 to 7.00.

In the case of `C=CC(=O)N[C@@H]1CCN(c2cccc(-c3c(-c4ccc(Oc5cccc(C)n5)cc4)c4c(N)ncnc4n3C)c2)C1` (single isomer, unassigned) [Example 1032], the results for the negative-log IC50 (pIC50) against FGFR2 and in the assay with SNU-16 (setting [1]) were 6.00 to 6.60 and ≥ 7.00, respectively.

With `C=C(C)C(=O)Nc1ccc(-c2c(C3=CC[C@@H](C(=O)N4CCCC45COC5)CC3)c3c(N)ncnc3n2C)c(C)c1` (single isomer, unassigned) [Example 1033], the pIC50 against FGFR2 is > 7.00; in the assay on SNU-16 (setting [1]), ≥ 7.00.

For `C=C(C)C(=O)Nc1ccc(-c2c(C3=CC[C@H](C(=O)N4CCCC4)CC3)c3c(N)ncnc3n2C)c(C)c1` (single isomer, unassigned) [Example 1034], the results for the negative-log IC50 (pIC50) at FGFR2 and with SNU-16 (setting [1]) were 6.60 to 7.00 and ≥ 7.00, respectively.

Turning to `C=C(C)C(=O)Nc1ccc(-c2c(C3=CC[C@@H](C(=O)N4CCCC4)CC3)c3c(N)ncnc3n2C)c(C)c1` (single isomer, unassigned) [Example 1035], the figures for the negative-log IC50 (pIC50) at FGFR2 and with SNU-16 (setting [1]) were > 7.00 and ≥ 7.00, respectively.

With `CN(C)C/C=C/C(=O)Nc1ccc(-c2c(C3=CC[C@@H](C(=O)N4CCCC4)CC3)c3c(N)ncnc3n2C)cc1` (single isomer, unassigned) [Example 1036], the pIC50 on FGFR2 was 6.00 to 6.60; in the assay with SNU-16 (setting [1]) it was ≥ 7.00.

Consider `C=C(C)C(=O)Nc1ccc(-c2c(C3=CC[C@H](C(=O)N4CC[C@@H]5C[C@@H]54)CC3)c3c(N)ncnc3n2C)cc1` (single isomer, unassigned) [Example 1038], for which the negative-log IC50 (pIC50) against FGFR2 was > 7.00; with SNU-16 (setting [1]), ≥ 7.00.

As to `C=C(C)C(=O)Nc1ccc(-c2c(C3=CC[C@@H](C(=O)N4CC[C@H]5C[C@H]54)CC3)c3c(N)ncnc3n2C)cc1` (single isomer, unassigned) [Example 1039], the pIC50 on FGFR2 and in the assay with SNU-16 (setting [1]) was 4.00 to 6.00 throughout.

Regarding `CN(C)C/C=C/C(=O)Nc1ccc(-c2c(C3=CC[C@H](C(=O)N4CCCC4)CC3)c3c(N)ncnc3n2C)cc1` (single isomer, unassigned) [Example 1042], the values for the pIC50 on FGFR2 and in the assay on SNU-16 (setting [1]) were > 7.00 and ≥ 7.00, respectively.

Consider `C=C(C)C(=O)Nc1ccc(-c2c(C3=CC[C@H](C(=O)N4CC[C@H]5C[C@H]54)CC3)c3c(N)ncnc3n2C)cc1` (single isomer, unassigned) [Example 1043], for which the negative logarithm of the IC50 (pIC50) against FGFR2 was > 7.00; in the assay on SNU-16 (setting [1]), ≥ 7.00.

For the molecule `C=CC(=O)Nc1ccc(-c2c(C3=CC[C@@H](C(=O)N4CCCC4)CC3)c3c(N)ncnc3n2C)c(C)c1` (single isomer, unassigned) [Example 1102], the pIC50 against FGFR2 is > 7.00; in the assay with SNU-16 (setting [1]), ≥ 7.00.

As to `C=CC(=O)Nc1ccc(-c2c(C3=CC[C@@H](C(=O)N4CCCC4)CC3)c3c(C)ncnc3n2C)c(C)c1` (single isomer, unassigned) [Example 1106], the pIC50 was > 7.00 on FGFR2 and ≥ 7.00 with SNU-16 (setting [1]).

On to `C=CC(=O)Nc1ccc(-c2c(C3=CC[C@H](C(=O)N4CCCC4)CC3)c3c(C)ncnc3n2C)cc1` (single isomer, unassigned) [Example 1107], for which the pIC50 against FGFR2 is > 7.00; in the assay with SNU-16 (setting [1]) it was ≥ 7.00.

For `C=C1CCN(c2ccc(-c3c(C4=CC[C@@H](C(=O)N5CCCC5)CC4)c4c(N)ncnc4n3C)cc2)C1=O` (single isomer, unassigned) [Example 1134], the negative logarithm of the IC50 (pIC50) against FGFR2 is 6.00 to 6.60; in the assay with SNU-16 (setting [1]), 6.60 to 7.00.

For `C=C1CCN(c2ccc(-c3c(C4=CC[C@H](C(=O)N5CCCC5)CC4)c4c(N)ncnc4n3C)cc2)C1=O` (single isomer, unassigned) [Example 1137], the negative logarithm of the IC50 (pIC50) against FGFR2 was 6.00 to 6.60; in the assay on SNU-16 (setting [1]), 6.60 to 7.00.

`C=C1CCN(c2ccc(-c3c(C4=CC[C@@H](C(=O)N5CCCC5)CC4)c4c(C)ncnc4n3C)c(Cl)c2)C1=O` (single isomer, unassigned) [Example 1140]: the pIC50 was > 7.00 against FGFR2 and ≥ 7.00 in the assay on SNU-16 (setting [1]).

Turning to `C=C1CCN(c2ccc(-c3c(C4=CC[C@H](C(=O)N5CCCC5)CC4)c4c(C)ncnc4n3C)c(Cl)c2)C1=O` (single isomer, unassigned) [Example 1141], the results for the pIC50 against FGFR2 and in the assay with SNU-16 (setting [1]) were > 7.00 and ≥ 7.00, respectively.

As a reminder, the pIC50 is the IC50 on a negative log10 scale, so that one unit is a factor of ten. A high value points to a low IC50.

The values above are taken from patent US11780845B2 (Relay Therapeutics, Inc., priority 2019, dated 2023).
